# Experimental data from PMC9090415, “Discovery of small molecule inhibitors of Plasmodium falciparum apicoplast DNA polymerase” (Journal of Enzyme Inhibition and Medicinal Chemistry, 2022).
# Target: P. falciparum apicoplast DNA polymerase (Pf-apPOL) (Plasmodium falciparum, UniProt Q8ILY1)
# Test: Fluorescence-based high-throughput DNA polymerase assay (molecular beacon), primary screen and dose-response;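 for % inhibition Apol 40': compound concentration given in µM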
# Format: biochemical
# Conditions: for DNA Pol: 90 min, 10 µM
# Protocol: The HT assay employs a molecular beacon, a stem-loop DNA template with a Cy3 dye and the Black Hole Quencher on the 3′ and 5′ ends of the DNA, respectively. Pf-apPOL concentration is based on a calculated absorptivity of ε280 = 56750 M^−1 cm^−1. Reactions were carried out at 25 °C, using Corning 3575 […] (well-volume, 20 µL). Assays testing for compound inhibition composed of reaction buffer (pH 7.9 in 50 mM potassium acetate, 20 mM Tris-acetate and 10 mM magnesium acetate), Pf-apPOL (20 nM), DNA substrate (20 nM), dNTPs (6 µM), and compound (10 µM in DMSO). The DNA and nucleotide substrates (dNTPs) were at concentrations of 20 nM and 6 µM, respectively, in the assay. Pf-apPOL was incubated in the reaction buffer with dNTPs and the compound of interest (10 µM, in the assay) at 25 °C for 10 min. The DNA substrate was then added and the reaction was allowed to proceed for 90 min at 25 °C.
# Each assay plate contained 16 negative controls (no Pf-apPOL, DMSO present) and 16 positive controls (Pf-apPOL present, no DMSO). The fluorescence of each well was determined using a BioTek Synergy Neo fluorescence plate reader using excitation and emission wavelengths of 555 and 570 nm, respectively.
# In the above, Min is the average of fluorescence emission of the negative controls (substrate only), Max the average fluorescence emission from the positive controls (enzyme + substrate), and Test the emission from the assays in the presence of compounds (enzyme + compound + substrates). […] […] The IC50 of each compound was determined using Equation (2): (2) IC50= Vmax/(1+ (I/IC50)^n)
# In the above, n measures cooperativity, with n > 1 indicating synergistic binding of more than a single molecule of the compound.
# To identify apPOL inhibitors we utilised our previously developed high-throughput DNA polymerase assay. The HT assay is based on a molecular beacon DNA template that forms a stem-loop with a Cy3 dye and the Black Hole Quencher on the 3′ and 5′ ends of the DNA, respectively. DNA polymerase activity extends an annealed primer through the stem region, displacing the fluorophore from the quencher, thereby increasing its fluorescence (Figure 1(A)). The assay accurately recapitulates the kinetic behaviour of apPOL, as measured through more conventional low-throughput gel-based assays. The Z′ factor for the assay described here was 0.9 across all plates (data not shown).
# Figure 1. High-throughput screening. (A) The fluorescent-based DNA polymerase assay used to screen the compound libraries. The DNA template strand is a hairpin loop with a primer annealed to the loop. The 3’ end of the primer is 11 bases away from the 6 bp duplex. Strand displacement activity of the DNA polymerase separates the Cy3 dye from the Black hole quencher leading to an increase in fluorescent signal. (B) The high-throughput assay workflow. The DNA polymerase is incubated with […] compound for 10 min prior to addition of the hairpin substrate. The reaction is quenched at 3 different time points and the fluorescent signal is measured and % inhibition is determined using the provided equation.
# Chain of P. falciparum apicoplast DNA polymerase (Pf-apPOL) (Q8ILY1 entry or part of it): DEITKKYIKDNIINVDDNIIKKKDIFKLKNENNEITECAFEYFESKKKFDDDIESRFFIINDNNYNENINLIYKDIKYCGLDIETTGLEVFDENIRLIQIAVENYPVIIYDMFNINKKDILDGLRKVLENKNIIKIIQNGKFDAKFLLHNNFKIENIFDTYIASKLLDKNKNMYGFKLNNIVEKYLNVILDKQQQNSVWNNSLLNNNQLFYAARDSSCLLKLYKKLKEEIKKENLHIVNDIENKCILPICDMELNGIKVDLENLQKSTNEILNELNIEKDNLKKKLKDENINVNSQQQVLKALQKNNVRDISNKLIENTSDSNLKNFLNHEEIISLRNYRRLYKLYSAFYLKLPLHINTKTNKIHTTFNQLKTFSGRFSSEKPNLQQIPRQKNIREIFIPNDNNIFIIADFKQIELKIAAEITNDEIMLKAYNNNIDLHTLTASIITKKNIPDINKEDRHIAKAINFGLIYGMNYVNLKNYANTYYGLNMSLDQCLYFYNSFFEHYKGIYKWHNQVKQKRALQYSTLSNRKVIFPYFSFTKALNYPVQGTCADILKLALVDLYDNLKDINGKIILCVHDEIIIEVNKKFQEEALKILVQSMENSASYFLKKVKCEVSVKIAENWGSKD
structure (smiles),measurement,setting,value
"CCOc1nc2cccc(C(=O)OC(C)OC(=O)OC3CCCCC3)c2n1Cc1ccc(-c2ccccc2-c2nn[nH]n2)cc1 (stereo not shown) [Molecule 94, CCOc1nc2c(n1Cc1ccc(cc1)c1ccccc1c1n[nH]nn1)c(ccc2)C(=O)OC(OC(=O)OC1CCCCC1)C]",DNA Pol,'DNA Pol' of the 186 hits list (screen value),88
same,% inhibition Apo pol 10',"DRC-1, conc 2.5",6.803%
same,% inhibition Apo pol 10',"DRC-1, conc 5",16.1591%
same,% inhibition Apo pol 10',"DRC-1, conc 10",73.0339%
same,% inhibition Apo pol 10',"DRC-1, conc 20",91.1%
same,% inhibition Apo pol 10',"DRC-1, conc 40",96.7244%
same,% inhibition Apo pol 10',"DRC-1, conc 80",98.4846%
same,% inhibition Apol 90',"DRC-1, conc 2.5",4.826%
same,% inhibition Apol 90',"DRC-1, conc 5",16.7075%
same,% inhibition Apol 90',"DRC-1, conc 10",71.8878%
same,% inhibition Apol 90',"DRC-1, conc 20",89.9299%
same,% inhibition Apol 90',"DRC-1, conc 40",93.9408%
same,% inhibition Apol 90',"DRC-1, conc 80",94.456%
same,% inhibition apPOL 180',"DRC-1, conc 2.5",1.0757%
same,% inhibition apPOL 180',"DRC-1, conc 5",11.5491%
same,% inhibition apPOL 180',"DRC-1, conc 10",64.6519%
same,% inhibition apPOL 180',"DRC-1, conc 20",87.4687%
same,% inhibition apPOL 180',"DRC-1, conc 40",92.7393%
same,% inhibition apPOL 180',"DRC-1, conc 80",93.1007%
same,% inhibition Apo pol 5',"DRC-2, conc 2.5",8%
same,% inhibition Apo pol 5',"DRC-2, conc 5",14%
same,% inhibition Apo pol 5',"DRC-2, conc 10",46%
same,% inhibition Apo pol 5',"DRC-2, conc 20",55%
same,% inhibition Apo pol 5',"DRC-2, conc 40",61%
same,% inhibition Apo pol 5',"DRC-2, conc 80",61%
same,% inhibition Apo pol 5',"DRC-2, concentration 5",14%
same,% inhibition Apo pol 5',"DRC-2, concentration 40",61%
same,% inhibition Apo pol 5',"DRC-2, concentration 80",61%
same,% inhibition Apol 40',"DRC-2, conc 2.5",11%
same,% inhibition Apol 40',"DRC-2, conc 5",19%
same,% inhibition Apol 40',"DRC-2, conc 10",59%
same,% inhibition Apol 40',"DRC-2, conc 20",71%
same,% inhibition Apol 40',"DRC-2, conc 40",74%
same,% inhibition Apol 40',"DRC-2, conc 80",74%
same,% inhibition Apol 40',"DRC-2, concentration 5",19%
same,% inhibition Apol 40',"DRC-2, concentration 10",59%
same,% inhibition Apol 40',"DRC-2, concentration 40",74%
same,% inhibition Apol 40',"DRC-2, concentration 80",74%
same,% inhibition ApPOL 90',"DRC-2, conc 2.5",9%
same,% inhibition ApPOL 90',"DRC-2, conc 5",19%
same,% inhibition ApPOL 90',"DRC-2, conc 10",59%
same,% inhibition ApPOL 90',"DRC-2, conc 20",73%
same,% inhibition ApPOL 90',"DRC-2, conc 40",77%
same,% inhibition ApPOL 90',"DRC-2, conc 80",77%
same,% inhibition ApPOL 90',"DRC-2, concentration 5",19%
same,% inhibition ApPOL 90',"DRC-2, concentration 10",59%
same,% inhibition ApPOL 90',"DRC-2, concentration 40",77%
same,% inhibition ApPOL 90',"DRC-2, concentration 80",77%
same,% inhibition apPOL 180',"DRC-2, conc 2.5",4.45%
same,% inhibition apPOL 180',"DRC-2, conc 5",14%
same,% inhibition apPOL 180',"DRC-2, conc 10",53%
same,% inhibition apPOL 180',"DRC-2, conc 20",69%
same,% inhibition apPOL 180',"DRC-2, conc 40",75%
same,% inhibition apPOL 180',"DRC-2, conc 80",75%
same,% inhibition apPOL 180',"DRC-2, concentration 5",14%
same,% inhibition apPOL 180',"DRC-2, concentration 40",75%
same,% inhibition apPOL 180',"DRC-2, concentration 80",75%
same,DNA Pol,"primary screen value, ""DNA Pol""",88
